Source: US8664220B2, “Polycyclic compounds as lysophosphatidic acid receptor antagonists” (Amira Pharmaceuticals, Inc., priority 2009, dated 2014)

Molecular target: T1, human LPA1 (Homo sapiens, UniProt Q92633)
T1 construct: the full-length cDNA for human LPA1 was obtained by PCR of the reverse transcription reaction; expressed in transfected cells
Assay: LPA1 calcium flux assay
Assay type: cell-based
Settings: human LPA1 expressing CHO cells, stimulated with 10 nM LPA; read-out: HLPA1 Ca Flux IC50
How it was run: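 CHO cells stably expressing human LPA1, serum-starved overnight and loaded with Calcium 4 dye in HBSS/20 mM Hepes/0.3% fatty-acid-free HSA, 1 h at 37 °C. Compounds pre-incubated 30 min at room temperature, then 10 nM LPA added; intracellular Ca2+ flux measured and IC50 from titration curves.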

T1 sequence (Q92633 whole entry): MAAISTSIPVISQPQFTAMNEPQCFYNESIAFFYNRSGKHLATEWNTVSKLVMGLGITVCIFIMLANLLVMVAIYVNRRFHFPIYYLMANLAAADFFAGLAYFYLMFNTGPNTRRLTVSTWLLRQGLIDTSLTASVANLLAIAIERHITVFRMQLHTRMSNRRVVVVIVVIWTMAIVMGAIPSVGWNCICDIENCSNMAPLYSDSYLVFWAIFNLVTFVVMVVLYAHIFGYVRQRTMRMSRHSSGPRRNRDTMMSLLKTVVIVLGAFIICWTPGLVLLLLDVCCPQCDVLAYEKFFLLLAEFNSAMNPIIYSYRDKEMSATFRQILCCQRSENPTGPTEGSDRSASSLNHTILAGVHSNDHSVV

Row | Compound | IC50 [nM]
1 | Cc1noc(-c2ccc(-c3ccc(C4(C(=O)O)CC4)cc3)cc2)c1C(O)c1cn(Cc2ccc(Cl)c(Cl)c2)nn1 (stereo not drawn) [Compound 1-64, 1-[4′-(4-{[1-(3,4-Dichloro-benzyl)-1H-[1,2,3]triazol-4-yl]-hydroxy-methyl}-3-methyl-isoxazol-5-yl)-biphenyl-4-yl]-cyclopropanecarboxylic acid] | < 300
2 | Cc1noc(-c2ccc(-c3ccc(CC(=O)O)cc3)cc2)c1C(O)c1cn(Cc2ccc(Cl)c(Cl)c2)nn1 (stereo not drawn) [Compound 1-65, [4′-(4-{[1-(3,4-Dichloro-benzyl)-1H-[1,2,3]triazol-4-yl]-hydroxy-methyl}-3-methyl-isoxazol-5-yl)-biphenyl-4-yl]-acetic acid] | 1000 to 50000
3 | Cc1noc(-c2ccc(-c3ccc(C4(C(=O)O)CC4)cc3)cc2)c1[C@@H](O)c1cn([C@H](C)c2ccccc2)nn1 [Compound 1-67, 1-[4′-(4-{(R)-Hydroxy-[1-((R)-1-phenyl-ethyl)-1H-[1,2,3]triazol-4-yl]-methyl}-3-methyl-isoxazol-5-yl)-biphenyl-4-yl]-cyclopropanecarboxylic acid] | < 300
4 | Cc1noc(-c2ccc(-c3ccc(C4(C(=O)O)CC4)cc3)cc2)c1Nc1cccc(-c2ccccc2)n1 [Compound 1-68, 1-{4′-[3-Methyl-4-(6-phenyl-pyridin-2-ylamino)-isoxazol-5-yl]-biphenyl-4-yl}-cyclopropanecarboxylic acid] | < 300
5 | Cc1noc(-c2ccc(-c3ccc(C4(C(=O)O)CC4)cc3)cc2)c1C(O)c1cccc(Cc2ccccc2)n1 (stereo not drawn) [Compound 1-69, 1-(4′-{4-[(6-Benzyl-pyridin-2-yl)-hydroxy-methyl]-3-methyl-isoxazol-5-yl}-biphenyl-4-yl)-cyclopropanecarboxylic acid] | < 300
6 | Cc1ccccc1Cn1cc(C(O)c2c(C)noc2-c2ccc(-c3ccc(C4(C(=O)O)CC4)cc3)cc2)nn1 (stereo not drawn) [Compound 1-70, 1-[4′-(4-{Hydroxy-[1-(2-methyl-benzyl)-1H-[1,2,3]triazol-4-yl]-methyl}-3-methyl-isoxazol-5-yl)-biphenyl-4-yl]-cyclopropanecarboxylic acid] | < 300
7 | Cc1noc(-c2ccc(-c3ccc(C4(C(=O)O)CC4)cc3)cc2)c1C(O)c1cn(Cc2c(F)cccc2Cl)nn1 (stereo not drawn) [Compound 1-71, 1-[4′-(4-{[1-(2-Chloro-6-fluoro-benzyl)-1H-[1,2,3]triazol-4-yl]-hydroxy-methyl}-3-methyl-isoxazol-5-yl)-biphenyl-4-yl]-cyclopropanecarboxylic acid] | < 300
8 | Cc1noc(-c2ccc(-c3ccc(C4(C(=O)O)CC4)cc3)cc2)c1C(O)c1cn(Cc2c(Cl)cccc2Cl)nn1 (stereo not drawn) [Compound 1-72, 1-[4′-(4-{[1-(2,6-Dichloro-benzyl)-1H-[1,2,3]triazol-4-yl]-hydroxy-methyl}-3-methyl-isoxazol-5-yl)-biphenyl-4-yl]-cyclopropanecarboxylic acid] | 300 to 1000
9 | Cc1noc(-c2ccc(-c3ccc(C4(C(=O)O)CC4)cc3)cc2)c1Nc1cccc(Cc2ccccc2)n1 [Compound 1-73, 1-{4′-[4-(6-Benzyl-pyridin-2-ylamino)-3-methyl-isoxazol-5-yl]-biphenyl-4-yl}-cyclopropanecarboxylic acid] | < 300
10 | Cc1noc(-c2ccc(-c3ccc(C4(C(=O)O)CC4)cc3)cc2)c1Nc1cccc(-c2ccccc2)c1 [Compound 1-74, 1-{4′-[4-(Biphenyl-3-ylamino)-3-methyl-isoxazol-5-yl]-biphenyl-4-yl}-cyclopropanecarboxylic acid] | < 300
11 | Cc1noc(-c2ccc(-c3ccc(C4(C(=O)O)CC4)cc3)cc2)c1Nc1ccc(-c2ccccc2)cc1 [Compound 1-75, 1-{4′-[4-(Biphenyl-4-ylamino)-3-methyl-isoxazol-5-yl]-biphenyl-4-yl}-cyclopropanecarboxylic acid] | 300 to 1000
12 | Cc1noc(-c2ccc(-c3ccc(CC(=O)O)cc3)cc2)c1Nc1cccc(-c2ccccc2)n1 [Compound 1-76, {4′-[3-Methyl-4-(6-phenyl-pyridin-2-ylamino)-isoxazol-5-yl]-biphenyl-4-yl}-acetic acid] | < 300
13 | Cc1noc(-c2ccc(-c3ccc(C4(C(=O)O)CC4)cc3)cc2)c1Nc1cccc(-c2cccc(C(F)(F)F)c2)n1 [Compound 1-77, 1-(4′-{3-Methyl-4-[6-(3-trifluoromethyl-phenyl)-pyridin-2-ylamino]-isoxazol-5-yl}-biphenyl-4-yl)-cyclopropanecarboxylic acid] | < 300
14 | Cc1noc(-c2ccc(-c3ccc(C4(C(=O)O)CC4)cc3)cc2)c1Nc1cncc(-c2ccccc2)n1 [Compound 1-78, 1-{4′-[3-Methyl-4-(6-phenyl-pyrazin-2-ylamino)-isoxazol-5-yl]-biphenyl-4-yl}-cyclopropanecarboxylic acid] | < 300
15 | Cc1noc(-c2ccc(-c3ccc(C4(C(=O)O)CC4)cc3)cc2)c1Nc1cccc(Oc2ccccc2)n1 [Compound 1-79, 1-{4′-[3-Methyl-4-(6-phenoxy-pyridin-2-ylamino)-isoxazol-5-yl]-biphenyl-4-yl}-cyclopropanecarboxylic acid] | < 300
16 | Cc1noc(-c2ccc(-c3ccc(C4(C(=O)O)CC4)cc3)cc2)c1Nc1nnc(-c2ccccc2)o1 [Compound 1-80, 1-{4′-[3-Methyl-4-(5-phenyl-[1,3,4]oxadiazol-2-ylamino)-isoxazol-5-yl]-biphenyl-4-yl}-cyclopropanecarboxylic acid] | < 300
17 | Cc1noc(-c2ccc(-c3ccc(CCC(=O)O)cc3)cc2)c1Nc1nnc(-c2ccccc2)o1 [Compound 1-81, 3-{4′-[3-Methyl-4-(5-phenyl[1,3,4]oxadiazol-2-ylamino)-isoxazol-5-yl]-biphenyl-4-yl}-propionic acid] | < 300
18 | Cc1noc(-c2ccc(-c3ccc(C4(C(=O)O)CC4)cc3)cc2)c1Nc1cccc(Oc2ccccc2)c1 [Compound 1-82, 1-{4′-[3-Methyl-4-(3-phenoxy-phenylamino)-isoxazol-5-yl]-biphenyl-4-yl}-cyclopropanecarboxylic acid] | < 300
19 | Cc1noc(-c2ccc(-c3ccc(C4(C(=O)O)CC4)cc3)cc2)c1Nc1nnc(Cc2ccccc2)o1 [Compound 1-83, 1-{4′-[4-(5-Benzyl-[1,3,4]oxadiazol-2-ylamino)-3-methyl-isoxazol-5-yl]-biphenyl-4-yl}-cyclopropanecarboxylic acid] | < 300
20 | Cc1noc(-c2ccc(-c3ccc(C4(C(=O)O)CC4)cc3)cc2)c1Nc1cccc(Cc2ccccc2F)n1 [Compound 1-84, 1-(4′-{4-[6-(2-Fluoro-benzyl)-pyridin-2-ylamino]-3-methyl-isoxazol-5-yl}-biphenyl-4-yl)-cyclopropanecarboxylic acid] | < 300
21 | Cc1noc(-c2ccc(-c3ccc(C4(C(=O)O)CC4)cc3)cc2)c1Nc1cccc(Cc2cccc(F)c2)n1 [Compound 1-85, 1-(4′-{4-[6-(3-Fluoro-benzyl)-pyridin-2-ylamino]-3-methyl-isoxazol-5-yl}-biphenyl-4-yl)-cyclopropanecarboxylic acid] | < 300
22 | Cc1noc(-c2ccc(-c3ccc(C4(C(=O)O)CC4)cc3)cc2)c1Nc1cccc(Cc2ccc(F)cc2)n1 [Compound 1-86, 1-(4′-{4-[6-(4-Fluoro-benzyl)-pyridin-2-ylamino]-3-methyl-isoxazol-5-yl}-biphenyl-4-yl)-cyclopropanecarboxylic acid] | < 300
23 | CCOc1ccc(-c2cccc(Nc3c(C)noc3-c3ccc(-c4ccc(C5(C(=O)O)CC5)cc4)cc3)n2)cn1 [Compound 1-87, 1-{4′-[4-(6′-Ethoxy-[2,3]bipyridinyl-6-ylamino)-3-methyl-isoxazol-5-yl]-biphenyl-4-yl}-cyclopropanecarboxylic acid] | 300 to 1000
24 | COc1cccc(-c2cccc(Nc3c(C)noc3-c3ccc(-c4ccc(C5(C(=O)O)CC5)cc4)cc3)n2)c1 [Compound 1-88, 1-(4′-{4-[6-(3-Methoxy-phenyl)-pyridin-2-ylamino]-3-methyl-isoxazol-5-yl}-biphenyl-4-yl)-cyclopropanecarboxylic acid] | < 300
25 | COc1ncccc1-c1cccc(Nc2c(C)noc2-c2ccc(-c3ccc(C4(C(=O)O)CC4)cc3)cc2)c1 [Compound 1-89, 1-(4′-{4-[3-(2-Methoxy-pyridin-3-yl)-phenylamino]-3-methyl-isoxazol-5-yl}-biphenyl-4-yl)-cyclopropanecarboxylic acid] | < 300
26 | Cc1noc(-c2ccc(-c3ccc(C4(C(=O)O)CC4)cc3)cc2)c1Nc1cccc(Cc2ccccc2)c1 [Compound 1-90, 1-{4′-[4-(3-Benzyl-phenylamino)-3-methyl-isoxazol-5-yl]-biphenyl-4-yl}-cyclopropanecarboxylic acid] | < 300
27 | Cc1noc(-c2ccc(-c3ccc(C4(C(=O)O)CC4)cc3)cc2)c1Nc1cccc(-c2ccccc2C#N)n1 [Compound 1-91, 1-(4′-{4-[6-(2-Cyano-phenyl)-pyridin-2-ylamino]-3-methyl-isoxazol-5-yl}-biphenyl-4-yl)-cyclopropanecarboxylic acid] | < 300
28 | COc1ccc(-c2cccc(Nc3c(C)noc3-c3ccc(-c4ccc(C5(C(=O)O)CC5)cc4)cc3)n2)cc1 [Compound 1-92, 1-(4′-{4-[6-(4-Methoxy-phenyl)-pyridin-2-ylamino]-3-methyl-isoxazol-5-yl}-biphenyl-4-yl)-cyclopropanecarboxylic acid] | < 300
29 | Cc1noc(-c2ccc(-c3ccc(C4(C(=O)O)CC4)cc3)cc2)c1Nc1cccc(-c2cccc(F)c2)n1 [Compound 1-93, 1-(4′-{4-[6-(3-Fluoro-phenyl)-pyridin-2-ylamino]-3-methyl-isoxazol-5-yl}-biphenyl-4-yl)-cyclopropanecarboxylic acid] | < 300
30 | COc1ccccc1-c1cccc(Nc2c(C)noc2-c2ccc(-c3ccc(C4(C(=O)O)CC4)cc3)cc2)n1 [Compound 1-94, 1-(4′-{4-[6-(2-Methoxy-phenyl)-pyridin-2-ylamino]-3-methyl-isoxazol-5-yl}-biphenyl-4-yl)-cyclopropanecarboxylic acid] | < 300
